Values joined by “and” are separate entries in the source; they are usually repeats but may differ in a detail not shown here. Equal entries are not always repeated. Active and inactive are the calls of the source. How the calls were made is not given here.
System: rodent lifetime carcinogenesis bioassay, tumor incidence TD50
Test: chronic cancer bioassays in animals – CPDB, compiled studies (AID 1745844)

Nc1ccc(S(=O)(=O)c2ccc(N)cc2)cc1
carcinogen call (mouse, strain B6C3F1, females, in feed, site: any site (literature study), lesion: several types, types named in the paper, dosed 78 weeks, study length 107 weeks): negative (inactive)
carcinogen call (mouse, strain B6C3F1, males, in feed, site: any site (literature study), lesion: several types, types named in the paper, dosed 78 weeks, study length 107 weeks): negative (inactive)
carcinogen call (rat, strain Fischer 344, females, in feed, site: any site (literature study), lesion: several types, types named in the paper, dosed 78 weeks, study length 105 weeks): negative (inactive)
TD50 (rat, strain Fischer 344, males, in feed, site: all sites, lesion: lymphoma, dosed 78 weeks, study length 104 weeks): 50.1 mg/kg/day
TD50 (rat, strain Fischer 344, males, in feed, site: any site (literature study), lesion: several types, types named in the paper, dosed 78 weeks, study length 104 weeks): 22.4 mg/kg/day
TD50 (rat, strain Fischer 344, males, in feed, site: peritoneum, lesion: fibrosarcoma + sarcoma, NOS, dosed 78 weeks, study length 104 weeks): 56.3 mg/kg/day
TD50 (rat, strain Fischer 344, males, in feed, site: peritoneum, lesion: fibrosarcoma, dosed 78 weeks, study length 104 weeks): 148 mg/kg/day
TD50 (rat, strain Fischer 344, males, in feed, site: peritoneum, lesion: sarcoma, NOS, dosed 78 weeks, study length 104 weeks): 91.3 mg/kg/day
TD50 (rat, strain Fischer 344, males, in feed, site: spleen, lesion: fibroma, dosed 78 weeks, study length 104 weeks): 28.5 mg/kg/day
TD50 (rat, strain Fischer 344, males, in feed, site: spleen, lesion: fibrosarcoma + fibroma + sarcoma, NOS, dosed 78 weeks, study length 104 weeks): 22.4 mg/kg/day
TD50 (rat, strain Fischer 344, males, in feed, site: spleen, lesion: fibrosarcoma, dosed 78 weeks, study length 104 weeks): 167 mg/kg/day
TD50 (rat, strain Fischer 344, males, in feed, site: spleen, lesion: sarcoma, NOS, dosed 78 weeks, study length 104 weeks): 170 mg/kg/day

CC(C)CCCCCCOC(=O)c1ccccc1C(=O)OCCCCCCC(C)C
TD50 (mouse, strain B6C3F1, females, in feed, site: liver, lesion: hepatocellular carcinoma, dosed 78 weeks, study length 104 weeks): 3340 mg/kg/day
TD50 (mouse, strain B6C3F1, females, in feed, site: liver, lesion: hepatocellular carcinoma, dosed 79 weeks, study length 79 weeks): 5240 mg/kg/day
TD50 (mouse, strain B6C3F1, females, in feed, site: liver, lesion: hepatocellular carcinoma, dosed 104 weeks, study length 104 weeks): 2620 mg/kg/day
TD50 (mouse, strain B6C3F1, females, in feed, site: liver, lesion: several types, types named in the paper, dosed 79 weeks, study length 79 weeks): 2860 mg/kg/day
TD50 (mouse, strain B6C3F1, females, in feed, site: liver, lesion: several types, types named in the paper, dosed 104 weeks, study length 104 weeks): 1440 mg/kg/day
TD50 (mouse, strain B6C3F1, males, in feed, site: liver, lesion: hepatocellular carcinoma, dosed 78 weeks, study length 104 weeks): 4100 mg/kg/day
TD50 (mouse, strain B6C3F1, males, in feed, site: liver, lesion: hepatocellular carcinoma, dosed 79 weeks, study length 79 weeks): 1460 mg/kg/day
TD50 (mouse, strain B6C3F1, males, in feed, site: liver, lesion: hepatocellular carcinoma, dosed 104 weeks, study length 104 weeks): 2920 mg/kg/day
TD50 (mouse, strain B6C3F1, males, in feed, site: liver, lesion: several types, types named in the paper, dosed 79 weeks, study length 79 weeks): 1460 mg/kg/day
TD50 (mouse, strain B6C3F1, males, in feed, site: liver, lesion: several types, types named in the paper, dosed 104 weeks, study length 104 weeks): 1590 mg/kg/day
TD50 (rat, strain Fischer 344, females, in feed, site: all sites, lesion: mononuclear-cell leukemia, dosed 78 weeks, study length 104 weeks): 1140 mg/kg/day
TD50 (rat, strain Fischer 344, females, in feed, site: all sites, lesion: mononuclear-cell leukemia, dosed 79 weeks, study length 79 weeks): 1690 mg/kg/day
TD50 (rat, strain Fischer 344, females, in feed, site: all sites, lesion: mononuclear-cell leukemia, dosed 104 weeks, study length 104 weeks): 458 mg/kg/day and 1150 mg/kg/day
TD50 (rat, strain Fischer 344, females, in feed, site: liver, lesion: hepatocellular adenoma, dosed 79 weeks, study length 79 weeks): 3440 mg/kg/day
TD50 (rat, strain Fischer 344, females, in feed, site: liver, lesion: hepatocellular carcinoma, dosed 78 weeks, study length 104 weeks): 14300 mg/kg/day
TD50 (rat, strain Fischer 344, females, in feed, site: liver, lesion: hepatocellular carcinoma, dosed 104 weeks, study length 104 weeks): 7980 mg/kg/day
TD50 (rat, strain Fischer 344, males, in feed, site: all sites, lesion: mononuclear-cell leukemia, dosed 78 weeks, study length 104 weeks): 445 mg/kg/day
TD50 (rat, strain Fischer 344, males, in feed, site: kidney, lesion: tubular carcinoma, dosed 78 weeks, study length 104 weeks): 2960 mg/kg/day
TD50 (rat, strain Fischer 344, males, in feed, site: kidney, lesion: tubular carcinoma, dosed 104 weeks, study length 104 weeks): 17200 mg/kg/day
TD50 (rat, strain Fischer 344, males, in feed, site: liver, lesion: hepatocellular carcinoma, dosed 78 weeks, study length 104 weeks): 9740 mg/kg/day
TD50 (rat, strain Fischer 344, males, in feed, site: liver, lesion: hepatocellular carcinoma, dosed 79 weeks, study length 79 weeks): 2750 mg/kg/day
TD50 (rat, strain Fischer 344, males, in feed, site: liver, lesion: hepatocellular carcinoma, dosed 104 weeks, study length 104 weeks): 2640 mg/kg/day

S=P(N1CC1)(N1CC1)N1CC1
TD50 (mouse, strain B6C3F1, females, i.p., site: all sites, lesion: lymphocytic leukemia + lymphoma, dosed 47 weeks, study length 86 weeks): 0.216 mg/kg/day and 0.21 mg/kg/day
TD50 (mouse, strain B6C3F1, females, i.p., site: any site (literature study), lesion: several types, types named in the paper, dosed 47 weeks, study length 86 weeks): 0.0855 mg/kg/day
TD50 (mouse, strain B6C3F1, females, i.p., site: liver, lesion: hepatocellular adenoma + hepatocellular carcinoma + neoplastic nodule, dosed 47 weeks, study length 86 weeks): 1.12 mg/kg/day
TD50 (mouse, strain B6C3F1, females, i.p., site: lung, lesion: alveolar/bronchiolar adenoma + alveolar/bronchiolar carcinoma, dosed 47 weeks, study length 86 weeks): 0.408 mg/kg/day
TD50 (mouse, strain B6C3F1, females, i.p., site: lung, lesion: alveolar/bronchiolar adenoma, dosed 47 weeks, study length 86 weeks): 0.408 mg/kg/day
TD50 (mouse, strain B6C3F1, males, i.p., site: all sites, lesion: leukemia + lymphocytic leukemia + lymphoma, dosed 52 weeks, study length 83 weeks): 0.241 mg/kg/day
TD50 (mouse, strain B6C3F1, males, i.p., site: all sites, lesion: leukemia + lymphoma, dosed 52 weeks, study length 83 weeks): 0.241 mg/kg/day and 0.238 mg/kg/day
TD50 (mouse, strain B6C3F1, males, i.p., site: all sites, lesion: lymphocytic leukemia + lymphoma, dosed 52 weeks, study length 83 weeks): 0.265 mg/kg/day and 0.262 mg/kg/day
TD50 (mouse, strain B6C3F1, males, i.p., site: all sites, lesion: squamous-cell carcinoma, dosed 52 weeks, study length 83 weeks): 0.102 mg/kg/day
TD50 (mouse, strain B6C3F1, males, i.p., site: any site (literature study), lesion: several types, types named in the paper, dosed 52 weeks, study length 83 weeks): 0.069 mg/kg/day
TD50 (mouse, strain B6C3F1, males, i.p., site: liver, lesion: hepatocellular adenoma + hepatocellular carcinoma + neoplastic nodule, dosed 52 weeks, study length 83 weeks): 1.12 mg/kg/day
TD50 (mouse, strain B6C3F1, males, i.p., site: lung, lesion: alveolar/bronchiolar adenoma + alveolar/bronchiolar carcinoma, dosed 52 weeks, study length 83 weeks): 0.584 mg/kg/day
TD50 (mouse, strain B6C3F1, males, i.p., site: preputial gland, lesion: squamous-cell carcinoma, dosed 52 weeks, study length 83 weeks): 0.3 mg/kg/day
TD50 (mouse, strain B6C3F1, males, i.p., site: skin, lesion: squamous-cell carcinoma, dosed 52 weeks, study length 83 weeks): 0.28 mg/kg/day
TD50 (rat, strain BR 46, males, i.v., site: any site (literature study), lesion: benign tumor, dosed 52 weeks, study length 104 weeks): 0.646 mg/kg/day
TD50 (rat, strain BR 46, males, i.v., site: any site (literature study), lesion: malignant tumor, dosed 52 weeks, study length 104 weeks): 0.303 mg/kg/day
TD50 (rat, strain BR 46, males, i.v., site: any site (literature study), lesion: several types, types named in the paper, dosed 52 weeks, study length 104 weeks): 0.186 mg/kg/day
TD50 (rat, strain Sprague-Dawley, females, i.p., site: any site (literature study), lesion: several types, types named in the paper, dosed 36 weeks, study length 81 weeks): 0.0404 mg/kg/day
TD50 (rat, strain Sprague-Dawley, females, i.p., site: brain + nasal cavity, lesion: olfactory neuroblastoma + carcinoma, NOS, dosed 36 weeks, study length 81 weeks): 0.819 mg/kg/day
TD50 (rat, strain Sprague-Dawley, females, i.p., site: ear canal + skin, lesion: squamous-cell carcinoma, dosed 36 weeks, study length 79 weeks): 0.214 mg/kg/day
TD50 (rat, strain Sprague-Dawley, females, i.p., site: ear canal + skin, lesion: squamous-cell carcinoma, dosed 36 weeks, study length 81 weeks): 0.217 mg/kg/day
TD50 (rat, strain Sprague-Dawley, females, i.p., site: ear canal, lesion: squamous-cell carcinoma, dosed 36 weeks, study length 79 weeks): 0.327 mg/kg/day
TD50 (rat, strain Sprague-Dawley, females, i.p., site: mammary gland, lesion: adenocarcinoma, NOS, dosed 36 weeks, study length 79 weeks): 0.182 mg/kg/day
TD50 (rat, strain Sprague-Dawley, females, i.p., site: uterus, lesion: adenocarcinoma, NOS, dosed 36 weeks, study length 79 weeks): 0.236 mg/kg/day
TD50 (rat, strain Sprague-Dawley, females, i.p., site: uterus, lesion: adenocarcinoma, NOS, dosed 36 weeks, study length 81 weeks): 0.243 mg/kg/day
TD50 (rat, strain Sprague-Dawley, males, i.p., site: all sites, lesion: leukemia + lymphoma, dosed 32 weeks, study length 79 weeks): 0.224 mg/kg/day
TD50 (rat, strain Sprague-Dawley, males, i.p., site: all sites, lesion: leukemia, dosed 32 weeks, study length 79 weeks): 0.29 mg/kg/day
TD50 (rat, strain Sprague-Dawley, males, i.p., site: all sites, lesion: leukemia, dosed 32 weeks, study length 82 weeks): 0.312 mg/kg/day
TD50 (rat, strain Sprague-Dawley, males, i.p., site: all sites, lesion: lymphocytic leukemia, dosed 32 weeks, study length 79 weeks): 0.374 mg/kg/day
TD50 (rat, strain Sprague-Dawley, males, i.p., site: any site (literature study), lesion: several types, types named in the paper, dosed 32 weeks, study length 82 weeks): 0.0332 mg/kg/day
TD50 (rat, strain Sprague-Dawley, males, i.p., site: brain + nasal cavity, lesion: neuroblastoma + olfactory neuroblastoma + carcinoma, NOS, dosed 32 weeks, study length 82 weeks): 0.285 mg/kg/day
TD50 (rat, strain Sprague-Dawley, males, i.p., site: ear canal + skin, lesion: squamous-cell carcinoma, dosed 32 weeks, study length 79 weeks): 0.122 mg/kg/day
TD50 (rat, strain Sprague-Dawley, males, i.p., site: skin, lesion: squamous-cell carcinoma, dosed 32 weeks, study length 79 weeks): 0.155 mg/kg/day
TD50 (rat, strain Sprague-Dawley, males, i.p., site: subcutaneous tissue, lesion: sarcoma, NOS, dosed 32 weeks, study length 79 weeks): 0.22 mg/kg/day

From PubChem BioAssay AID1745844 (Carcinogenic Potency Database (CPDB), 2022)
